The text below walks through data of BindingDB's records for doi:10.1016/S0960-894X(00)80679-4 (1993).

The target in the assay is Gastrin/cholecystokinin type B receptor (Cavia porcellus). The assay is described as follows: In vitro binding affinity against Cholecystokinin type B receptor in guinea pig brain membranes.

One may read the IC50 as the midpoint of a concentration-inhibition curve. The molecule `CCCC[C@H](NC(=O)[C@H](Cc1ccc(OS(=O)(=O)O)cc1)NC(=O)OC(C)(C)C)C(=O)NCC(=O)N[C@H](Cc1c[nH]c2ccccc12)C(=O)N[C@@H](CCCC)C(=O)N[C@@H](CC(=O)O)C(=O)NCCc1ccccc1` [(S)-3-{(S)-2-[(R)-2-(2-{(S)-2-[(S)-2-tert-Butoxycarbonylamino-3-(4-sulfooxy-phenyl)-propionylamino]-hexanoylamino}-acetylamino)-3-(1H-indol-3-yl)-propionylamino]-hexanoylamino}-N-phenethyl-succinamic acid] showed an IC50 of 1000 nM.
